Test results published in PMC7901654, “Bioisosteric Discovery of NPA101.3, a Second-Generation RET/VEGFR2 Inhibitor Optimized for Single-Agent Polypharmacology” (Journal of Medicinal Chemistry, 2020).

How the values were obtained:
Assay type in all cases: cell-based
[1] = tested on: CCDC6-RET, NCOA4-RET, and FGFR1OP-RET; test: RET phosphorylation Western blot in NIH3T3 cells, rearranged RET; details: 2 h
Description: (§1) Fibroblasts transfected with RET/C634R were treated with increasing doses of NPA101.3, ranging from 0.1 to 10.0 nM. RET autophosphorylation was assessed by Western blotting using two different antibodies that can recognize phosphorylated Y905, located in the RET kinase activation loop, or Y1062, a multidocking site involved in RET downstream signaling.[41]
(§2) Figure 4 NPA101.3-mediated inhibition of phosphorylation and signaling of oncogenic RET mutants and VEGFR2 in intact cells. Serum-starved RAT1 cells exogenously expressing the (A and B) indicated RET point mutants or (C) NIH3T3 cells exogenously expressing the indicated RET rearranged mutants were treated for 2 h with the indicated concentrations of the compound. Total cell lysates (50 μg) were subjected to immunoblotting with anti-phospho-Y1062 (αp1062) and anti-phospho-Y905 (αp905) RET antibodies. The blots were normalized using the anti-RET (αRET) antibody. (D) HEK293 cells were transiently transfected with human VEGFR2; 36 h after transfection, cells were serum starved for 12 h. The indicated doses of the compound or vehicle (NT) were added for 2 h, and then VEGFA (100 ng/mL) stimulation was applied for 15 min. […]
(§3) Protein lysates were prepared according to standard procedures. […] Immune complexes were detected with the enhanced chemiluminescence kit (Amersham Pharmacia Biotech, Little Chalfont, U.K.). […]

NIH3T3 RET/C634Y cells = test: Phosphorylation and signalling Western blot in NIH3T3 RET/C634Y cells; details: 10.0 nM, 2 h
Description: Protein lysates were prepared according to standard procedures. Briefly, cells were lysed in a buffer containing 50 mM N-2-hydroxyethylpiperazine-N′-2-ethanesulfonic acid (HEPES; pH 7.5), 1% (v/v) Triton X-100, 150 mM NaCl, 5 mM EGTA, 50 mM NaF, 20 mM sodium pyrophosphate, 1 mM sodium vanadate, 2 mM phenylmethanesulfonyl fluoride (PMSF), and 1 μg/mL aprotinin. Lysates were clarified by centrifugation at 10000g for 15 min. […] Immune complexes were detected with the enhanced chemiluminescence kit (Amersham Pharmacia Biotech, Little Chalfont, U.K.). Anti-phospho-SHC (#Y317), which recognizes SHC protein when phosphorylated on Y317, was from Upstate Biotechnology Inc. (Lake Placid, NY). Anti-SHC (H-108) was from Santa Cruz Biotechnology (Santa Cruz, CA). Anti-MAPK (9101) and anti-phospho-MAPK (9102), specific for p42/44MAPK (ERK1/2) phosphorylated on Thr202/Tyr204, antibodies were from Cell Signaling Technologies (Danvers, MA). Anti-phospho-VEGFR2/KDR (2478), specific for VEGFR2/KDR phosphorylated on Tyr1175, and anti-VEGFR2/KDR (2479) were from Cell Signaling Technologies. Anti-phospho-p70S6K (9234), specific for p70S6K phosphorylated on Thr389, and anti-p70S6K (2708) were from Cell Signaling Technologies. […]

human VEGFR2 = target: T1, human VEGFR2 (Homo sapiens, UniProt P35968); test: Ligand-induced VEGFR2 autophosphorylation in transfected HEK293 cells; details: 2 h, VEGFA 100 ng/mL
T1 construct: expressed in transfected cells; host or cells: HEK293, transient transfection
T1 sequence (P35968 20-1356): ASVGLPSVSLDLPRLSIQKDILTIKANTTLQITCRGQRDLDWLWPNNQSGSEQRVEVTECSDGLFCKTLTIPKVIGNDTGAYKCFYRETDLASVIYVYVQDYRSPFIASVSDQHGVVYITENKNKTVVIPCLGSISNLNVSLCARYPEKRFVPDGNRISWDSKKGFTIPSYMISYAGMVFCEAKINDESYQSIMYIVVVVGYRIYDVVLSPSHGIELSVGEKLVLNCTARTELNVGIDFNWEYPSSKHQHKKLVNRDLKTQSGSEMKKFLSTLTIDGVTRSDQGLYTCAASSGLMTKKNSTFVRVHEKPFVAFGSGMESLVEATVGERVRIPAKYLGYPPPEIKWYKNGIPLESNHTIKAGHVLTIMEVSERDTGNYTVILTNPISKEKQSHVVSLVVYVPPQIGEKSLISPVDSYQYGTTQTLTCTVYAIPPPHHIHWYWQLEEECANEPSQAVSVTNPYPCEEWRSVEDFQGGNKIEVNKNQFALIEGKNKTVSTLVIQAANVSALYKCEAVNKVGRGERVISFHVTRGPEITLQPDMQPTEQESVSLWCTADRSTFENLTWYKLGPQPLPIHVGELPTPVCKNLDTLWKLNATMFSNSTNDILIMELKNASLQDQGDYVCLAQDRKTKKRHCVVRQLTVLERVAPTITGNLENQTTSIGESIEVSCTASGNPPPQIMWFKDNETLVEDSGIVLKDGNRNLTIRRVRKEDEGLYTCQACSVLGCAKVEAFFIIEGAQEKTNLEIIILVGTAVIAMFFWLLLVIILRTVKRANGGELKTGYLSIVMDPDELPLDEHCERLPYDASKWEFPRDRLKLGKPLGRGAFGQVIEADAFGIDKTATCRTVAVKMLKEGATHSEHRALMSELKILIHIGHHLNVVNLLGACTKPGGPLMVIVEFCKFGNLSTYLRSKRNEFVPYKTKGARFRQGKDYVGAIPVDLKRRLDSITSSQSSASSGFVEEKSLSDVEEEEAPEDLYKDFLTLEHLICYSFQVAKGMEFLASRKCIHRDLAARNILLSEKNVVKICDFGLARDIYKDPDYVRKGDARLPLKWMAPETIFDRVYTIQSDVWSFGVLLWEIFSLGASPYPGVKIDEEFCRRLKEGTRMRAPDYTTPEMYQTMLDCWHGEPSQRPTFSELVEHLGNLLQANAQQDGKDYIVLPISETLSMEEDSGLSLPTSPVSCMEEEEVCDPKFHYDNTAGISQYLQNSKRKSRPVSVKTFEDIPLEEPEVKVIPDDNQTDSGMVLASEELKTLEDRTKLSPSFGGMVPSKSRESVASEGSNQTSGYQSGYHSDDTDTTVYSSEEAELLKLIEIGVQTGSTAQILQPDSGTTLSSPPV
Description: as §1, §2, §3

[2] = tested on: cells negative for RET oncogenes; test: Growth inhibition, cells negative for RET oncogenes (summary); details: doses of ≤100 nM
Description: Finally, NPA101.3 featured efficacy already at 1 mg/kg/day in RET-driven tumors in nude mice. […] Therefore, though in a therapeutic setting toxicity may be increased by hitting multiple targets, it is feasible that the activity of the NPA101.3 against RET-driven tumors may take advantage of a synergistic combination of cell autonomous (on tumor cell growth mediated by RET inhibition) and non-cell autonomous (on blood vessel formation mediated by VEGFR2 inhibition) effects, potentiating its effect and reducing the chances of resistance development. Several TKIs with anti-RET activity are available, and some are already registered for the treatment of different types of thyroid cancers. […]
Nthy-ory-3-1 (10000 per well), TPC-1 (10000 per well), MZ-CRC-1 (100000 per well), TT (200000 per well), Lc-2/ad (100000 per well), BCPAP (10000 per well), 8505-C (10000 per well), PC-9 (10000 per well), A549 (10000 per well), CALU-1 (10000 per well), NIH3T3 RET/C634Y (10000 per well), and NIH3T3 HRAS/G12V (10000 per well) were seeded in six-well tissue culture plates. […] Cells were counted every day (Ba/F3), every 2 days (fibroblasts), or every 2–3 days (human cell lines). […] IC50 doses were calculated through a curve fitting analysis from last day of growth curves using the PRISM software program (Graphpad Software Inc.).

Question: How did the “phosphorylation of rearranged RET oncoproteins” value [1] turn out when `CC(C)(C)c1cc(NC(=O)Cc2ccc(-n3cnc4cc(-c5ccc(S(C)(=O)=O)cc5)ccc43)cc2)no1` [NPA101.3] was run?
Answer: highly sensitive

Question: What about the “phosphorylation of MAPK” value (NIH3T3 RET/C634Y cells) of the same molecule?
Answer: attenuated

Question: And the “phosphorylation of RET and SHC” value (NIH3T3 RET/C634Y cells)?
Answer: almost completely inhibited

Question: What about the “ligand-induced VEGFR2 autophosphorylation” value (human VEGFR2; 1.0 nM) of the same molecule?
Answer: reduced

Question: And the “inhibition of ligand-induced VEGFR2 autophosphorylation” value (human VEGFR2; 10.0 nM)?
Answer: virtually total

Question: And the “growth effect in cells negative for RET oncogenes” value [2]?
Answer: no detectable effect
